# According to US11185077B2, “Attractants for rodents” (priority 2016, dated 2021):
# Tested on: wild rats
# Assay: Field experiments with paired trap boxes: trap captures of wild rats
# Assay type: in vivo, rat
# Settings: Experiment 16, 4 μg synthetic androstenone
# Excerpt: Four field experiments were run in Vancouver B.C. to evaluate the effect of synthetic androstenone and synthetic testosterone on captures of female wild mice and rats in combination with species-specific male sex pheromone blend. Experimental replicates were set up along the interior and exterior walls of buildings as depicted in FIG. 7. Experiment 15 evaluated captures of wild mice in trap boxes baited with high-levels of androstenone; Experiment 16 evaluated captures of wild rats in traps baited with high-levels of androstenone; Experiment 17 evaluated captures of wild mice in traps baited with low-levels of testosterone; and Experiment 18 evaluated captures of wild mice in traps baited with low-levels of androstenone. Experiment 15 was run from Feb. 4, 2016 to Apr. 14, 2016. Experiment 16 was run from Feb. 26, 2016 to Sep. 19, 2016. Experiments 17 and 18 were run in parallel from Jun. 2, 2016 to Sep. 8, 2016.
# Each replicate of Experiments 15 to 18 consisted of a pair of trap boxes (Mice: PROTECTA® Mouse, Bell Laboratories Inc., Madison, Wis. 53704, USA; Rats: PROTECTA® Sidekick™; Bell Laboratories Inc., Madison, Wis. 53704), with 50-cm spacing between boxes in each pair, and at least 2 m between pairs. Each trap box contained an armed snap trap (1, Mice: Victor® Easy Set® Mouse Trap; Rats: Victor® Easy Set® Rat Trap; Woodstream Corp, Lititz, Pa. 17543, USA) baited with a cereal-based food bait and a scintillation vial (2) containing synthetic sex pheromone blends. Each box in each pair also contained a treatment stimulus that consisted of a piece of Whatman #1 filter paper (3a) that by random assignment was treated with: 4 μg of synthetic androstenone dissolved in 50 μl ether (Experiments 15 and 16); 750 μg of synthetic testosterone dissolved in 50 μl ether (Experiment 17); or 750 μg of synthetic androstenone dissolved in 50 μl ether (Experiment 18). […]
# Experiments 19 and 20 evaluated the effect of synthetic blends of progesterone and estradiol (estrogen) on captures of wild mice (Experiment 19) and wild rats (Experiment 20) in the field. […]
structure (smiles),measurement,setting,value
"C[C@]12CCC(=O)C[C@@H]1CC[C@@H]1[C@@H]2CC[C@]2(C)C=CC[C@@H]12 [androstenone, 5α-androst-16-en-3-one]",captures of juvenile and adult male rats,,no significant effect
same,captures of juvenile female rats,,no significant effect
same,captures of adult female rats vs control boxes,with food bait and male rat sex pheromone blend,significantly more
